Test results: PubChem BioAssay AID602355 (The Scripps Research Institute Molecular Screening Center, 2012)
Calls of active or inactive are those of the source. No rule for the calls is given here.

What was measured:
Experiment in all cases: off-target hydrolase inhibition by competitive ABPP – gel-based competitive ABPP, fluorescence, selectivity assay for DAGLb inhibitor project, late-stage follow-up (AID 602355)
[1] = system: ABHD12; conditions: mouse proteome gel ABPP, FP-rhodamine fluorescence, at 10 µM (top of the series)
[2] = biological target: Platelet-activating factor acetylhydrolase (Mus musculus) (UniProt Q60963); conditions: mouse proteome gel ABPP, FP-rhodamine fluorescence; PLA2G7; at 10 µM (top of the series)
[3] = biological target: Acyl-protein thioesterase 1 (Mus musculus) (UniProt P97823); conditions: mouse proteome gel ABPP, FP-rhodamine fluorescence; LYPLA1; at 10 µM (top of the series)
[4] = system: FAAH; conditions: mouse proteome gel ABPP, FP-rhodamine fluorescence, at 10 µM (top of the series)
[5] = system: LYPLA2; conditions: mouse proteome gel ABPP, FP-rhodamine fluorescence, at 10 µM (top of the series)
[6] = biological target: Monoacylglycerol lipase ABHD6 (Mus musculus) (UniProt Q8R2Y0); conditions: mouse proteome gel ABPP, FP-rhodamine fluorescence, at 10 µM (top of the series)
[7] = system: ABHD11; conditions: mouse proteome gel ABPP, FP-rhodamine fluorescence, at 10 µM (top of the series)
[8] = biological target: Platelet-activating factor acetylhydrolase 2, cytoplasmic (Mus musculus) (UniProt Q8VDG7); conditions: mouse proteome gel ABPP, FP-rhodamine fluorescence; PAFAH2; at 10 µM (top of the series)
[9] = system: MAGL; conditions: mouse proteome gel ABPP, FP-rhodamine fluorescence, at 10 µM (top of the series)
[10] = system: PNPLA6; conditions: mouse proteome gel ABPP, FP-rhodamine fluorescence, at 10 µM (top of the series)
[11] = biological target: Diacylglycerol lipase-beta (Mus musculus) (UniProt Q91WC9); conditions: mouse proteome gel ABPP, FP-rhodamine fluorescence; DAGLb; at 10 µM (top of the series)
Chain of Diacylglycerol lipase-beta (Mus musculus) (Q91WC9 whole entry, looked up): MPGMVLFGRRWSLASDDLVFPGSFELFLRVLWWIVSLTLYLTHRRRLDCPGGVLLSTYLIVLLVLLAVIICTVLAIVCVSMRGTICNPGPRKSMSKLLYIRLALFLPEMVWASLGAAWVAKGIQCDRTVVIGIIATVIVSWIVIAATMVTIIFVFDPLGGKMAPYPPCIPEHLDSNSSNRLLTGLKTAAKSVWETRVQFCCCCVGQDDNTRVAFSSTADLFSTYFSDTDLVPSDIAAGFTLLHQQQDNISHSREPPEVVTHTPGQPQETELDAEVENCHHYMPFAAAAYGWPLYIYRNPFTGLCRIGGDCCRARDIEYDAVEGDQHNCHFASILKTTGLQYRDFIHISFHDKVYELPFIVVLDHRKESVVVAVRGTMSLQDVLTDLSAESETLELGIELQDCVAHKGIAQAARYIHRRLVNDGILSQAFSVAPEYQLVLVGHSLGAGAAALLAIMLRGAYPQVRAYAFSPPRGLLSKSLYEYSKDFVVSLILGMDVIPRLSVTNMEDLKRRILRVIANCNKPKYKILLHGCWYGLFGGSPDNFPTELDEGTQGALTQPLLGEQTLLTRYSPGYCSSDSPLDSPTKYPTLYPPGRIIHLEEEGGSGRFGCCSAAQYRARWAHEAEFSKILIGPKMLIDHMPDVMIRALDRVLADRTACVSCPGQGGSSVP

Chain of Acyl-protein thioesterase 1 (Mus musculus) (P97823 whole entry, looked up): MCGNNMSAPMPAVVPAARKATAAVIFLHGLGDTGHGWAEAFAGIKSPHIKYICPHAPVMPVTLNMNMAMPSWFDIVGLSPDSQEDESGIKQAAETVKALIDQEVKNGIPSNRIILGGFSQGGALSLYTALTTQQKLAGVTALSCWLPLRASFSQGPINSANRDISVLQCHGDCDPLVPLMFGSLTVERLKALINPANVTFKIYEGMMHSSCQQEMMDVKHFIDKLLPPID
Chain of Monoacylglycerol lipase ABHD6 (Mus musculus) (Q8R2Y0 whole entry, looked up): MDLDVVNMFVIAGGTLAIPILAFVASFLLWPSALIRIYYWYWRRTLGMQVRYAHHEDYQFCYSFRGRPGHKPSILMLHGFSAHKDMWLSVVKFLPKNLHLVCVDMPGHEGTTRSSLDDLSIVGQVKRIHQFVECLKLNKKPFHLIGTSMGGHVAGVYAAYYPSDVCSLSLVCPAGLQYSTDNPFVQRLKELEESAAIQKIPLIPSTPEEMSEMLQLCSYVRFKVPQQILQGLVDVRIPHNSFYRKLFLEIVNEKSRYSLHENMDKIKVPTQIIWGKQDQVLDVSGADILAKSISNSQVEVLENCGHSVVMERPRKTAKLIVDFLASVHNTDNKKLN
Chain of Platelet-activating factor acetylhydrolase 2, cytoplasmic (Mus musculus) (Q8VDG7 whole entry, looked up): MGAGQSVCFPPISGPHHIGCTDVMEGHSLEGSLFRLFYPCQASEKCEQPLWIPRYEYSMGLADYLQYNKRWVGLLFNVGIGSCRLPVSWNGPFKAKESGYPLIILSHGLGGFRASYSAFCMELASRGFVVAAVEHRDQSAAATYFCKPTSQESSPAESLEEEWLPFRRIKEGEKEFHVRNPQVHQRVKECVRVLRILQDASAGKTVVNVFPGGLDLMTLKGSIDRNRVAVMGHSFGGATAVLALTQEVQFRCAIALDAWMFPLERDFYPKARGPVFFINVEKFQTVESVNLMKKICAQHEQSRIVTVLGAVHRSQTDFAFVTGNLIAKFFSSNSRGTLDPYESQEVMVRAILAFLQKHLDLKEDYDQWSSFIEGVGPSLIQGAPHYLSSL
Chain of Platelet-activating factor acetylhydrolase (Mus musculus) (Q60963 whole entry, looked up): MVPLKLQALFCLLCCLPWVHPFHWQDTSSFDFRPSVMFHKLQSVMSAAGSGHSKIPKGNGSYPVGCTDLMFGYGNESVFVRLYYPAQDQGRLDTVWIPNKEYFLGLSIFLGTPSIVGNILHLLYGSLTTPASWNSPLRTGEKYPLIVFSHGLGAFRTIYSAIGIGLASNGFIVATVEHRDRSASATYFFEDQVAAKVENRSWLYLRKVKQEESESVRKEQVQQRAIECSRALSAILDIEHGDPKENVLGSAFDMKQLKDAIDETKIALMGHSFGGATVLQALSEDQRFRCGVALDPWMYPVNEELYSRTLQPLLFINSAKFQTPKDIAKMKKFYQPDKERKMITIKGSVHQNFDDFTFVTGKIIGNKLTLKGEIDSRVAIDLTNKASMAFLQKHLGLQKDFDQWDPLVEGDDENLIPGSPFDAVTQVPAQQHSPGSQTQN

inhibition [1] | inhibition [3] | inhibition [4] | inhibition [5] | inhibition [6] [%] | inhibition [7] | inhibition [9] | inhibition [10] | inhibition [11] | SMILES | inhibition [2] [%] | inhibition [8]
0% (inactive) | 15% (inactive) | 70% | 15% (inactive) | 100 | 0% (inactive) | 0% (inactive) | 55% (inactive) | 20% (inactive) | COc1ccc(-c2ccc(-c3cn(C(=O)N4CCCCC4c4ccccc4)nn3)cc2)cc1 (stereo not drawn) |  | 
0% (inactive) | 0% (inactive) | 0% (inactive) | 0% (inactive) | 100 | 0% (inactive) | 100% |  | 95% | COc1ccccc1-c1ccc(-c2cn(C(=O)N3CCCCC3Cc3ccccc3)nn2)cc1 (stereo not drawn) | 85 | 15% (inactive)

SMILES | inhibition [1] | inhibition [3] | inhibition [4] | inhibition [5] | inhibition [6] [%] | inhibition [7] | inhibition [9] | inhibition [10] | inhibition [11] | inhibition [2] [%] | inhibition [8]
O=C(N1CCCCC1Cc1ccccc1)n1cc(-c2ccc(-c3ccccc3)cc2)nn1 (stereo not drawn) | 20% (inactive) | 0% (inactive) | 25% (inactive) | 0% (inactive) | 100 | 0% (inactive) | 0% (inactive) |  |  | 100 | 80% (inactive)
